According to ChEMBL document CHEMBL1201862, “PubChem BioAssay data set” (2004):
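Protocol summary: plate cells (96-well), add compound at 5 concentrations, incubate 48 h, interpolate endpoints linearly. GI50 is the concentration that inhibits growth by half.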 Active and inactive are the calls of the source. No stated cut-off is given here; in the data, active = GI50 up to about 1.1 µM and inactive = higher.

Experiments:
Assay in all cases: DTP human tumour cell line panel, 48 h
786-0 = test system: 786-0
CAKI-1 = test system: CAKI-1
DU-145 = test system: DU-145
EKVX = test system: EKVX
HCT-116 = test system: HCT-116
K562 = test system: K562
MCF7 = test system: MCF7
MDA-MB-231 = test system: MDA-MB-231
MOLT-4 = test system: MOLT-4
OVCAR-4 = test system: OVCAR-4
OVCAR-8 = test system: OVCAR-8
SF-268 = test system: SF-268
SF-539 = test system: SF-539
SK-MEL-5 = test system: SK-MEL-5
SW-620 = test system: SW-620
U-251 = test system: U-251
M14 = test system: M14
SNB-75 = test system: SNB-75
SR = test system: SR
PC-3 = test system: PC-3

Measured: GI50

CCc1n[nH]c(=O)n1/N=C/c1ccc(C)cc1
inactive: 786-0 > 100 µM | CAKI-1 > 100 µM | DU-145 65.2 µM | EKVX 3.41 µM | HCT-116 97.9 µM | K562 > 100 µM | MCF7 > 100 µM | MDA-MB-231 > 100 µM | MOLT-4 5.2 µM | OVCAR-4 58.5 µM | OVCAR-8 > 100 µM | SF-268 66.5 µM | SF-539 > 100 µM | SK-MEL-5 > 100 µM | SW-620 > 100 µM | U-251 > 100 µM

C/C(=N\Nc1ccc([N+](=O)[O-])cc1[N+](=O)[O-])c1sc(-n2nc(-c3ccccc3)cc2-c2ccccc2)nc1C
inactive: 786-0 36.7 µM | CAKI-1 20 µM | DU-145 35.5 µM | EKVX 26.5 µM | HCT-116 29.4 µM | M14 56.4 µM | MCF7 46.5 µM | MDA-MB-231 44.4 µM | MOLT-4 16.9 µM | OVCAR-4 43.9 µM | OVCAR-8 30.5 µM | SF-268 44.2 µM | SF-539 46.8 µM | SK-MEL-5 34.4 µM | SNB-75 45.5 µM | SR 18.3 µM | SW-620 26.3 µM | U-251 42.7 µM

O=C1CCc2c3c(c4c([nH]c5ccccc54)c2CC1)C(=O)NC3=O
active: MOLT-4 0.774 µM | SNB-75 0.0265 µM | SW-620 0.815 µM
inactive: 786-0 11.7 µM | CAKI-1 2.02 µM | DU-145 9.98 µM | EKVX 11.1 µM | HCT-116 2.05 µM | K562 1.19 µM | M14 5.05 µM | MCF7 2.97 µM | MDA-MB-231 25.3 µM | OVCAR-4 2.08 µM | OVCAR-8 6.87 µM | PC-3 2.05 µM | SF-268 7.85 µM | SF-539 5.36 µM | SK-MEL-5 1.91 µM | U-251 4.55 µM

CN(C)c1ccc2oc(=O)c3ccccc3c2c1
inactive: 786-0 30.5 µM | CAKI-1 28.9 µM | DU-145 > 100 µM | EKVX 20.4 µM | HCT-116 40.9 µM | K562 > 100 µM | M14 > 100 µM | MDA-MB-231 17.1 µM | MOLT-4 > 100 µM | OVCAR-4 > 100 µM | OVCAR-8 > 100 µM | PC-3 > 100 µM | SF-268 28.6 µM | SF-539 33.1 µM | SK-MEL-5 86.5 µM | SNB-75 27.5 µM | SR > 100 µM | SW-620 > 100 µM | U-251 25.3 µM

CCOC(=O)CC(=O)Nc1c(C(=O)OCC)sc2nc(SC)nc(Nc3ccc(OC)c(OC)c3)c12
inactive: 786-0 6.22 µM | CAKI-1 64 µM | DU-145 39.7 µM | EKVX > 100 µM | HCT-116 39.4 µM | M14 > 100 µM | MCF7 38.2 µM | MDA-MB-231 18.5 µM | OVCAR-4 66.2 µM | OVCAR-8 34.4 µM | PC-3 > 100 µM | SF-268 3.19 µM | SF-539 9.86 µM | SK-MEL-5 > 100 µM | SNB-75 1.99 µM | SW-620 > 100 µM | U-251 6.4 µM

COc1cc(C2SCC(=O)N2c2ccc(-n3c(-c4ccccc4)nc4ccccc4c3=O)cc2)cc(OC)c1OC (centres undefined)
inactive: 786-0 > 100 µM | CAKI-1 > 100 µM | DU-145 > 100 µM | EKVX > 100 µM | HCT-116 > 100 µM | K562 > 100 µM | MCF7 > 100 µM | MDA-MB-231 > 100 µM | MOLT-4 20.1 µM | OVCAR-4 > 100 µM | OVCAR-8 > 100 µM | PC-3 > 100 µM | SF-268 82.4 µM | SF-539 > 100 µM | SK-MEL-5 68.9 µM | SR 45.4 µM | SW-620 > 100 µM | U-251 > 100 µM

CCN1C(=O)C/C(=C\C(C)=O)Nc2ccccc21
inactive: 786-0 > 100 µM | CAKI-1 > 100 µM | EKVX > 100 µM | HCT-116 > 100 µM | K562 > 100 µM | M14 > 100 µM | MOLT-4 > 100 µM | OVCAR-4 > 100 µM | OVCAR-8 > 100 µM | SF-268 > 100 µM | SF-539 > 100 µM | SK-MEL-5 10 µM | SNB-75 21.5 µM | SR > 100 µM | SW-620 > 100 µM | U-251 > 100 µM

CC1(C)[C@@H](Cn2ccc(=O)[nH]c2=O)CC[C@@]1(C)CO
inactive: 786-0 > 100 µM | CAKI-1 > 100 µM | DU-145 > 100 µM | EKVX > 100 µM | HCT-116 > 100 µM | K562 > 100 µM | M14 > 100 µM | MDA-MB-231 > 100 µM | OVCAR-4 > 100 µM | PC-3 > 100 µM | SF-268 > 100 µM | SK-MEL-5 > 100 µM | SNB-75 > 100 µM | SW-620 > 100 µM | U-251 > 100 µM

Cn1c2c(cc(-c3ccccc3)c1=O)COc1ccccc1-2
inactive: 786-0 39.3 µM | CAKI-1 37.5 µM | EKVX 9.04 µM | HCT-116 16.9 µM | K562 23.9 µM | M14 31.6 µM | MOLT-4 23.1 µM | OVCAR-4 37.8 µM | OVCAR-8 34 µM | SF-268 28.6 µM | SF-539 49.1 µM | SK-MEL-5 17.5 µM | SNB-75 23.4 µM | SR 39.1 µM | SW-620 45.9 µM | U-251 41.6 µM

COC(=O)c1ccccc1C1=C([N+](=O)[O-])C(c2ccccc2)C(C#N)=C(N)O1 (centres undefined)
inactive: 786-0 35.6 µM | DU-145 72.1 µM | EKVX 10.5 µM | HCT-116 > 100 µM | K562 33.7 µM | M14 > 100 µM | MDA-MB-231 > 100 µM | MOLT-4 35 µM | OVCAR-8 32.1 µM | PC-3 > 100 µM | SF-268 31.8 µM | SF-539 > 100 µM | SK-MEL-5 > 100 µM | SNB-75 96.2 µM | SR 36.3 µM | SW-620 35.9 µM | U-251 > 100 µM

COc1cccc(CC2C(=O)N/C(=N\C(C)=O)N2C)c1OC(C)=O (centres undefined)
inactive: 786-0 > 100 µM | CAKI-1 > 100 µM | DU-145 > 100 µM | EKVX 44 µM | HCT-116 > 100 µM | M14 > 100 µM | MCF7 > 100 µM | MDA-MB-231 > 100 µM | MOLT-4 > 100 µM | OVCAR-4 > 100 µM | OVCAR-8 > 100 µM | PC-3 > 100 µM | SF-268 > 100 µM | SF-539 > 100 µM | SK-MEL-5 > 100 µM | SNB-75 > 100 µM | SW-620 > 100 µM | U-251 > 100 µM

Oc1cc(-c2ccccc2)nc2ncccc12
active: 786-0 0.16 µM | CAKI-1 0.0792 µM | DU-145 0.298 µM | HCT-116 0.0719 µM | K562 0.0336 µM | M14 0.0853 µM | MCF7 0.0372 µM | MDA-MB-231 0.418 µM | MOLT-4 0.0962 µM | OVCAR-8 0.22 µM | PC-3 0.0681 µM | SF-539 0.109 µM | SK-MEL-5 0.0778 µM | SNB-75 0.0975 µM | SW-620 0.0438 µM | U-251 0.0927 µM
inactive: EKVX > 100 µM | OVCAR-4 15 µM | SF-268 1.93 µM

N#CC(C#N)/N=N/c1ccc(-c2nc3ccccc3s2)cc1
inactive: 786-0 8.36 µM | CAKI-1 2.81 µM | DU-145 5.79 µM | EKVX 7.03 µM | HCT-116 3.78 µM | M14 8.73 µM | MCF7 4.53 µM | MOLT-4 1.33 µM | OVCAR-4 6.49 µM | OVCAR-8 4.37 µM | PC-3 2.8 µM | SF-539 9.33 µM | SK-MEL-5 2.74 µM | SNB-75 25.9 µM | SR 3.23 µM | SW-620 4.79 µM

O=C(NCCN1CCOCC1)c1ccc(I)cc1
inactive: 786-0 > 100 µM | CAKI-1 > 100 µM | EKVX > 100 µM | K562 > 100 µM | M14 > 100 µM | MCF7 > 100 µM | MOLT-4 > 100 µM | OVCAR-4 > 100 µM | OVCAR-8 > 100 µM | PC-3 > 100 µM | SF-268 > 100 µM | SF-539 > 100 µM | SK-MEL-5 > 100 µM | SNB-75 > 100 µM | SR > 100 µM | SW-620 > 100 µM | U-251 > 100 µM

N#Cc1ccc2[nH]c3c(c2c1)CC(=O)Nc1ccccc1-3 [PAULLONE 2]
inactive: 786-0 > 100 µM | CAKI-1 > 100 µM | EKVX > 100 µM | HCT-116 21.5 µM | K562 > 100 µM | M14 > 100 µM | MCF7 > 100 µM | MDA-MB-231 > 100 µM | MOLT-4 > 100 µM | OVCAR-4 > 100 µM | OVCAR-8 > 100 µM | PC-3 > 100 µM | SF-268 > 100 µM | SF-539 > 100 µM | SK-MEL-5 > 100 µM | SNB-75 > 100 µM | SR 2.9 µM | SW-620 > 100 µM | U-251 > 100 µM

CCOC(=O)/C(=C\c1c(C)[nH]c2ccccc12)P(=O)(OCC)OCC
inactive: 786-0 > 100 µM | CAKI-1 > 100 µM | DU-145 > 100 µM | EKVX > 100 µM | HCT-116 > 100 µM | K562 > 100 µM | M14 > 100 µM | MCF7 > 100 µM | MDA-MB-231 > 100 µM | MOLT-4 > 100 µM | OVCAR-4 > 100 µM | OVCAR-8 > 100 µM | SF-268 > 100 µM | SF-539 > 100 µM | SK-MEL-5 > 100 µM | SNB-75 > 100 µM | SR > 100 µM | SW-620 > 100 µM | U-251 > 100 µM
